In ChEMBL document CHEMBL6182949 (J Med Chem, 2025):
Converted amounts (≈) assume the structure as drawn. The source made the active and inactive calls. The rule behind the calls is not given here.

What was measured:
[1] = AUClast in Sprague-Dawley rat at 10 mg/kg, po measured up to 24 hrs by LC-MS/MS analysis; type: ADME, organism-based; conditions: in vivo
[2] = Kinetic solubility of compound in FaSSIF at pH 6.5 incubated for 2 hr by LC-MS analysis; type: physicochemical; conditions: read-out: Kinetic_solubility
[3] = AUClast in Beagle dog at 10 mg/kg, po measured up to 24 hrs by LC-MS/MS analysis; type: ADME, organism-based, Canis lupus familiaris; conditions: in vivo
Mus musculus [4] = assay: Anti-psoriasis effect in IMQ-induced C57BL/6 mouse assessed as reduction in erythema intensity administered topically twice daily for 6 days and measured after 24 hrs; type: functional, organism-based; conditions: dose 10-100 mg/kg, time 7.0 day
[5] = Kinetic solubility of compound in FaSSGF at […] incubated for 2 hr by LC-MS analysis; type: physicochemical; conditions: read-out: Kinetic_solubility
[6] = molecular target: T1, Protein cereblon/Interleukin-1 receptor-associated kinase 4 (Homo sapiens, UniProt Q9NWZ3+Q96SW2); assay: PROTAC activity at CRBN/IRAK4 in human THP-1 cells assessed as induction of IRAK4 degradation incubated for 24 hrs by HiBiT lytic reagent based analysis relative to control; type: cell-based
Target sequence in this assay (Q96SW2 whole entry, looked up): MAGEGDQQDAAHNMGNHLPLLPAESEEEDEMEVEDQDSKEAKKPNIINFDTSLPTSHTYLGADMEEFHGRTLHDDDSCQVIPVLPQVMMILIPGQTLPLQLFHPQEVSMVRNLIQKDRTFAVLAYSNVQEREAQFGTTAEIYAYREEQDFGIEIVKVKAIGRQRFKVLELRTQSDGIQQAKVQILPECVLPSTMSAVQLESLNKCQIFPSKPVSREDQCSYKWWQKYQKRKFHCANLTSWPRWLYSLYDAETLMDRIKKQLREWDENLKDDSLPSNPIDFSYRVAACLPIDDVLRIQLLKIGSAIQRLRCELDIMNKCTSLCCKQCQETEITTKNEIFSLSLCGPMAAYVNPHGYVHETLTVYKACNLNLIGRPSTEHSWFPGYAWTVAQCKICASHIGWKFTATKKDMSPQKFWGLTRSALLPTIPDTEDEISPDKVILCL
Target sequence in this assay (Q9NWZ3 whole entry, looked up): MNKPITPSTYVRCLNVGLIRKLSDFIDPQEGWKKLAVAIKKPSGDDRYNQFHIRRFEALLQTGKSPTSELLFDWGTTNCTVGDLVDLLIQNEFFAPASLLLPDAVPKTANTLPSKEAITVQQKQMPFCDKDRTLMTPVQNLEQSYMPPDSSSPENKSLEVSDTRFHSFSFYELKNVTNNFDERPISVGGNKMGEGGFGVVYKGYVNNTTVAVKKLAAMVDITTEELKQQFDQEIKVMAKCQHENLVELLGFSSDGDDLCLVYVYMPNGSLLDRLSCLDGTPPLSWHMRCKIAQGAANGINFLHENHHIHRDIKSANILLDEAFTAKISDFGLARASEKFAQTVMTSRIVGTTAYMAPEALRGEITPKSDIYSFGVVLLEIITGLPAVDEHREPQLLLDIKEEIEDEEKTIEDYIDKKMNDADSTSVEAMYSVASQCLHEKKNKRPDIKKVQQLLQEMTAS

[7] = Cmax in cynomolgus monkey at 1 mg/kg, iv measured up to 24 hrs by LC-MS/MS analysis; type: ADME, organism-based, Macaca fascicularis; conditions: in vivo
[8] = AUClast in cynomolgus monkey at 1 mg/kg, iv measured up to 24 hrs by LC-MS/MS analysis; type: ADME, organism-based, Macaca fascicularis; conditions: in vivo
[9] = molecular target: Protein cereblon/Interleukin-1 receptor-associated kinase 4 (Mus musculus) (UniProt Q8C7D2+Q8R4K2); assay: In-vivo PROTAC activity at C57BL/6 mouse assessed as reduction in IRAK4 level in spleen at 10 mg/kg, po measured after 24 hrs by Western blot analysis; type: functional, organism-based; design: scale not given: the % may be the effect or the level left
Chain of Protein cereblon/Interleukin-1 receptor-associated kinase 4 (Mus musculus) (Q8C7D2 whole entry, looked up): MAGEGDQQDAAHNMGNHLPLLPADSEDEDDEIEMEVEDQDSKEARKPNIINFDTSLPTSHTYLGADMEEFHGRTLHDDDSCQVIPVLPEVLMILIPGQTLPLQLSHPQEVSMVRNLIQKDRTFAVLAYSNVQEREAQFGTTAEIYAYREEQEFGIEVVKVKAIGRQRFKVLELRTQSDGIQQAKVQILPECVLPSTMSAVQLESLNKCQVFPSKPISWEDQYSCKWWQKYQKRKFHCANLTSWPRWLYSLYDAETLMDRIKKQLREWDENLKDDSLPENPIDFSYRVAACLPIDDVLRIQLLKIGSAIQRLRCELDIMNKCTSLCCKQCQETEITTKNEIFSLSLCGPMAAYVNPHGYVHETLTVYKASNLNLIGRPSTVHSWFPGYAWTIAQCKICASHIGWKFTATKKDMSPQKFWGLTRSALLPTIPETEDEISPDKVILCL
Chain of Protein cereblon/Interleukin-1 receptor-associated kinase 4 (Mus musculus) (Q8R4K2 whole entry, looked up): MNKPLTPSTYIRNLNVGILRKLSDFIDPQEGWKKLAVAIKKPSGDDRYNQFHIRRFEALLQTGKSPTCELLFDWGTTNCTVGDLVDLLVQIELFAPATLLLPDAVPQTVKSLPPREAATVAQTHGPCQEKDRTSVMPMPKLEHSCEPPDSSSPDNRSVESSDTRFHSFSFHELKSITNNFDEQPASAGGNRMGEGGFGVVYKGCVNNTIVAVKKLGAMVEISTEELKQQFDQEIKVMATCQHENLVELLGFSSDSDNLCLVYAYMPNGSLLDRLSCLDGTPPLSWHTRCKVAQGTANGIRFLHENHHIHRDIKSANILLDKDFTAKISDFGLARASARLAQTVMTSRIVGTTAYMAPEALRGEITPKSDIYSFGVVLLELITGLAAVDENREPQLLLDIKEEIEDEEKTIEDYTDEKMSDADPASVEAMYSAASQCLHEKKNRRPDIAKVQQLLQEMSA

[10] = Inhibition of LPS-stimulated IL-6 release in human PBMC cells; type: functional, cell-based
[11] = Volume of distribution at steady state in cynomolgus monkey at 1 mg/kg, iv measured up to 24 hrs by LC-MS/MS analysis; type: ADME, organism-based, Macaca fascicularis; conditions: in vivo, read-out: Vdss
[12] = Clearance in cynomolgus monkey at 1 mg/kg, iv measured up to 24 hrs by LC-MS/MS analysis; type: ADME, organism-based, Macaca fascicularis; conditions: in vivo
CYP2B6 = molecular target: T2, CYP2B6 (Homo sapiens, UniProt P20813); assay: Inhibition of CYP2B6 in human liver microsome using bupropion as substrate at 10 uM preincubated for 5 mins followed by NADPH addition and measured after 10 mins by LC-MS/MS analysis relative to control; type: ADME; conditions: human liver microsomes, probe bupropion, time 15 min
T2 sequence (P20813 whole entry): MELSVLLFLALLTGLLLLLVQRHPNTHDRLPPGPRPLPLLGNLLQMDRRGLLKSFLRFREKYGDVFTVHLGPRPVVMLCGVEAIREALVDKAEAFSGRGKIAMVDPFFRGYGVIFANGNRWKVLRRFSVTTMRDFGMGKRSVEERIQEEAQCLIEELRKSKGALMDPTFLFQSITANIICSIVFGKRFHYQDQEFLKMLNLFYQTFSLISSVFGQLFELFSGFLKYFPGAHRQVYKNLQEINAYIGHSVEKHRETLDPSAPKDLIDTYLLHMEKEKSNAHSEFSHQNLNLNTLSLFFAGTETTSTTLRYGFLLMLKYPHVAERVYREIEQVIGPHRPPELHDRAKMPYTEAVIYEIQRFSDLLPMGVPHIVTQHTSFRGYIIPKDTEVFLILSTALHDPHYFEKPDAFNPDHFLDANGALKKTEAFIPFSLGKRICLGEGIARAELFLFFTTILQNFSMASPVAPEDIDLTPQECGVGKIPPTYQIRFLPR

[13] = molecular target: T1, Protein cereblon/Interleukin-1 receptor-associated kinase 4; assay: PROTAC activity at CRBN/IRAK4 in human THP-1 cells assessed as induction of IRAK4 degradation incubated for 24 hrs by HiBiT lytic reagent based analysis; type: cell-based
Target sequence in this assay (Q9NWZ3 whole entry): as the sequence (Q9NWZ3 whole entry, looked up) above
Target sequence in this assay (Q96SW2 whole entry): as the sequence (Q96SW2 whole entry, looked up) above

Mus musculus [14] = assay: Anti-psoriasis effect in IMQ-induced C57BL/6 mouse assessed as reduction in ear thickness at 100 mg/kg administered topically twice daily for 6 days and measured after 24 hrs; type: functional, organism-based; conditions: time 7.0 day
[15] = Permeability across apical to basal side in human Caco-2 cells incubated for 120 mins by LC-MS/MS analysis; type: ADME, cell-based; conditions: read-out: permeability
CYP2C9 = CYP2C9 (Homo sapiens, UniProt P11712); assay: Inhibition of CYP2C9 in human liver microsome using diclofenac as substrate at 10 uM preincubated for 5 mins followed by NADPH addition and measured after 10 mins by LC-MS/MS analysis relative to control; type: ADME; conditions: human liver microsomes, probe diclofenac, time 15 min
Chain of CYP2C9 (P11712 whole entry): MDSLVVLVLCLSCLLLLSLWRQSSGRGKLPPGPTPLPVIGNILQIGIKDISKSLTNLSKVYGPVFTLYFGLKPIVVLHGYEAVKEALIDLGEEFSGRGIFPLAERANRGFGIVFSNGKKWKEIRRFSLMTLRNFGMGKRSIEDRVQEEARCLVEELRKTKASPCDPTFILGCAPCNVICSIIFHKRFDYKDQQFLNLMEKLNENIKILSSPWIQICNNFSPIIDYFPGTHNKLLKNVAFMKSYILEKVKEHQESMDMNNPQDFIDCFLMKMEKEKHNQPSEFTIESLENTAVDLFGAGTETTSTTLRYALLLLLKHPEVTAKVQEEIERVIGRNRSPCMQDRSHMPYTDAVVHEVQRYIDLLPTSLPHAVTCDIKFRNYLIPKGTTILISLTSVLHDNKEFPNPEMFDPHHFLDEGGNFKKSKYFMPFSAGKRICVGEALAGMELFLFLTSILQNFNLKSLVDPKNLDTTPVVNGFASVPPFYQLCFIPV

[16] = Cmax in Beagle dog at 2 mg/kg, iv measured up to 24 hrs by LC-MS/MS analysis; type: ADME, organism-based, Canis lupus familiaris; conditions: in vivo
[17] = Cmax in cynomolgus monkey at 20 mg/kg, po measured up to 24 hrs by LC-MS/MS analysis; type: ADME, organism-based, Macaca fascicularis; conditions: in vivo
CYP3A4 = CYP3A4 (Homo sapiens, UniProt P08684); assay: Inhibition of CYP3A4 in human liver microsome using testosterone as substrate at 10 uM preincubated for 5 mins followed by NADPH addition and measured after 10 mins by LC-MS/MS analysis relative to control; type: ADME; conditions: human liver microsomes, probe testosterone, time 15 min
Chain of CYP3A4 (P08684 whole entry): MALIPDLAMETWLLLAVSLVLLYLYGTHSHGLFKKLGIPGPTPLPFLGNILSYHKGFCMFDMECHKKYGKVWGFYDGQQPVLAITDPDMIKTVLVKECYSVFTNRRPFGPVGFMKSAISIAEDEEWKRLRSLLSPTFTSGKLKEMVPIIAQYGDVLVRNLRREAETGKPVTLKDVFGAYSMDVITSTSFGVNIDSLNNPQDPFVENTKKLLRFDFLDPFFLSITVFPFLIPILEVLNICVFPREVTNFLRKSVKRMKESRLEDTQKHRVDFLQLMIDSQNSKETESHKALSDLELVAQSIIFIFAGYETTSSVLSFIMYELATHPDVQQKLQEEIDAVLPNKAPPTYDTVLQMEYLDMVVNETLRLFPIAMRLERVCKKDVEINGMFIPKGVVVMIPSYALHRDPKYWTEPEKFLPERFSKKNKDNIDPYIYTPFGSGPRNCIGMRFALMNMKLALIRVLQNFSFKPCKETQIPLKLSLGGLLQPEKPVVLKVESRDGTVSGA

[18] = molecular target: Protein cereblon/Sal-like protein 4 (Homo sapiens) (UniProt Q96SW2+Q9UJQ4); assay: PROTAC activity at CRBN/SALL4 in human PBMC cells assessed as induction of SALL4 degradation at 1 uM by Western blot analysis; type: cell-based
Chain of Protein cereblon/Sal-like protein 4 (Homo sapiens) (Q96SW2 whole entry, looked up): as the sequence (Q96SW2 whole entry, looked up) above
Chain of Protein cereblon/Sal-like protein 4 (Homo sapiens) (Q9UJQ4 whole entry, looked up): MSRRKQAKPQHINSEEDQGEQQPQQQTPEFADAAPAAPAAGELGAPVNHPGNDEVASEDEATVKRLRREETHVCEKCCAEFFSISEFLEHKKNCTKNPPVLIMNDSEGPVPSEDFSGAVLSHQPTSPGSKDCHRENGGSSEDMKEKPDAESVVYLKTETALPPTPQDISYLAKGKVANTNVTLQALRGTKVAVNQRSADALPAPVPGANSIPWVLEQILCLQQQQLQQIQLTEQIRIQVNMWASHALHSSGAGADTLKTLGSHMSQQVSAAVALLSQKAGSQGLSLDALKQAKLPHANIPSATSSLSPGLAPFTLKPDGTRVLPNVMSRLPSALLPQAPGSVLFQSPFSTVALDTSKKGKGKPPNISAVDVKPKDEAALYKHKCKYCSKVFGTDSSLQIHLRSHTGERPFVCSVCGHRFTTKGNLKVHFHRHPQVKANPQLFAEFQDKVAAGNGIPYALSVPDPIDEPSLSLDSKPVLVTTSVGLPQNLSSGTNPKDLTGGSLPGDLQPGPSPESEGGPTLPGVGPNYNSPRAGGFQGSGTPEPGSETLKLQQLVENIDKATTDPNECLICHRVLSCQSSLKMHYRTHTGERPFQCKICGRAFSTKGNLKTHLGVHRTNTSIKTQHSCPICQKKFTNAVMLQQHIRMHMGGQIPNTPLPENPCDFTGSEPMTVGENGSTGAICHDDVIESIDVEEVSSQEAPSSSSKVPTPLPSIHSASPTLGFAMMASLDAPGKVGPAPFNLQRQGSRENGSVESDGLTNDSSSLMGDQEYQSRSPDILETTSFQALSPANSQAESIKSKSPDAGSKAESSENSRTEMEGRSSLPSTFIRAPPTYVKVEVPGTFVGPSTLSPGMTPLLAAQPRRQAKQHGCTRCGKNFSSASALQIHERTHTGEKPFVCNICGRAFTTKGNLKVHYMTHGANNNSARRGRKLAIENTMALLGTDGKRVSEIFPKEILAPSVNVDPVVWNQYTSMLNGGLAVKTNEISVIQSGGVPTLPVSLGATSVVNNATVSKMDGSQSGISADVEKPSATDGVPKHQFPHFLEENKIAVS

[19] = Metabolic stability mouse hepatocyte assessed as half life at 1 uM measured up to 120 mins by LC-MS/MS analysis; type: ADME, cell-based; conditions: hepatocytes
Mus musculus [20] = assay: Anti-arthritic activity against collagen-induced arthritis DBA/1 mouse model assessed as improvement in delta paw volume at 100 mg/kg, po administered for 14 days […]; type: functional, organism-based; conditions: time 14.0 day
[21] = Half life in Sprague-Dawley rat at 2 mg/kg, iv measured up to 24 hrs by LC-MS/MS analysis; type: ADME, organism-based; conditions: in vivo
CYP2C19 = CYP2C19 (Homo sapiens, UniProt P33261); assay: Inhibition of CYP2C19 in human liver microsome using (S)-mephenytoin as substrate at 10 uM preincubated for 5 mins followed by NADPH addition and measured after 30 mins by LC-MS/MS analysis relative to control; type: ADME; conditions: human liver microsomes, probe (S)-mephenytoin, time 35 min
Chain of CYP2C19 (P33261 whole entry): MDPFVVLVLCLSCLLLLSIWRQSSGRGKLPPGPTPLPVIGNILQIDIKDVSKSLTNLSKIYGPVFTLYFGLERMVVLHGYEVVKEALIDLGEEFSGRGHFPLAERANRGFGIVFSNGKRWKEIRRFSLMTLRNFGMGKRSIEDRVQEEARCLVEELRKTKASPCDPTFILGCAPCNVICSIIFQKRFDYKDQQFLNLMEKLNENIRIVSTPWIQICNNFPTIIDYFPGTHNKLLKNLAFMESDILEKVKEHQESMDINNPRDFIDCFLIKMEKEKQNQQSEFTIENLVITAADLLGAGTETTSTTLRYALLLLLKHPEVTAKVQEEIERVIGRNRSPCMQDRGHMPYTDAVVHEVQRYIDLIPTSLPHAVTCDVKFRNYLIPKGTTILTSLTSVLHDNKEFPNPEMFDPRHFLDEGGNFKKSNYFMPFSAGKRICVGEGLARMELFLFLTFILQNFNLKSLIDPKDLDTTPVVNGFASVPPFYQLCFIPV

[22] = Half life in male C57BL/6 mouse at 2 mg/kg, iv measured up to 24 hrs by LC-MS/MS analysis; type: ADME, organism-based; conditions: in vivo
[23] = AUClast in Beagle dog at 2 mg/kg, iv measured up to 24 hrs by LC-MS/MS analysis; type: ADME, organism-based, Canis lupus familiaris; conditions: in vivo
Mus musculus [24] = assay: Anti-arthritic activity against collagen-induced arthritis DBA/1 mouse model assessed as reduction in pathological score at 100 mg/kg, po administered for 14 days; type: functional, organism-based; conditions: time 14.0 day
[25] = Tmax in Beagle dog at 10 mg/kg, po measured up to 24 hrs by LC-MS/MS analysis; type: ADME, organism-based, Canis lupus familiaris; conditions: in vivo
[26] = Metabolic stability human hepatocyte assessed as half life at 1 uM measured up to 120 mins by LC-MS/MS analysis; type: ADME, cell-based; conditions: hepatocytes

Structure (SMILES): Cn1c(=O)n(C2CCC(=O)NC2=O)c2cccc(C#CCO[C@H]3CC[C@H](CN4CCC5(CC4)Cc4cc(NC(=O)c6coc7cccnc67)c(N6CCC(CO)CC6)cc4O5)CC3)c21 (stereo not given in full)
- AUClast [1]: 7093 ng·h/mL
- solubility kinetic at 2 h [2]: 13.3 µg/mL (≈ 15.3 µM)
- AUC(0-t) at 24 h [3]: 6990 ng·h/mL
- Activity (Mus musculus [4]): Dose-dependent-effect
- solubility kinetic at 2 h [5]: 252 µg/mL (≈ 290 µM)
- Emax [6]: 94%
- Cmax [7]: 672 ng/mL
- AUC(0-t) at 24 h [8]: 1820 ng·h/mL
- Activity [9]: 74%
- IC50 [10]: 16.4 nM
- Vd [11]: 3.85 L/kg
- clearance [12]: 9.2 mL/min/kg
- inhibition at 10 min, 10 µM (CYP2B6): 0.13%
- DC50 [13]: 4.01 nM
- Activity (Mus musculus [14]): Active
- Papp A→B at 2 h [15]: 0.09 ×10⁻⁶ cm/s
- inhibition at 10 min, 10 µM (CYP2C9): 13.9%
- Cmax [16]: 599 ng/mL
- Cmax [17]: 229 ng/mL
- inhibition at 10 min, 10 µM (CYP3A4): 10.2%
- Activity [18]: inactive
- half-life at 1 µM [19]: 3.42 h
- Activity (Mus musculus [20]): Active
- half-life [21]: 4 h
- inhibition at 0.5 h, 10 µM (CYP2C19): 45.1%
- half-life [22]: 3.12 h
- AUC(0-t) at 24 h [23]: 2670 ng·h/mL
- Activity (Mus musculus [24]): Active
- Tmax [25]: 4 h
- half-life at 1 µM [26]: 2.5 h
